Data set [1] relates to monocyte-derived M1 macrophages. Nature of the data set: M1 differentiation assay (macrophage TNFα, IL6, IL10 ELISA, FACS). To be noted: Homo sapiens, Macrophage, 10 uM. Format: cell-based, human. The procedure, abridged: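 CD14+ human blood monocytes (100,000) differentiated 6 days with 10 ng/ml GM-CSF plus compound at 10 or 50 μM, refreshed days 2 and 4. Matured 24 h with GM-CSF, IFNγ, LPS plus compound. Supernatant TNFα, IL6, IL10 by ELISA; FACS M1 phenotype CD86+CD68+CD163−.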
(ELISA stands for enzyme-linked immunosorbent assay.)

Data set [2] is described as follows: Treg differentiation assay. Format: cell-based. To be noted: human. How it is done:
Naïve CD4+ T cells (Stemcell, 17555) were isolated from PBMC and placed (20,000 cells/well) in 10 μg/ml anti-CD3 antibody (eBioscience, 16-0037-85) pre-coated 96-well flat bottom plate (Eppendorf, Cat #30730119) for 3 hours at 37° C. in an X-VIVO15 medium (Lonza, 04-418Q) supplemented with 15% FBS (Hyclone SV30087.03) and 1% Penicillin-Streptomycin (Hyclone, SV30010). Treg induction cocktail was added including 2 μg/ml anti-CD28 (eBioscience 16-0289-85), 20 ng/ml IL-2 (R&D, 202-IL-050) 0.2 ng/ml TGF-β1 (Peprotech, 100-21-50) in the presence of the compounds at 10 and 50 μM dose. On day 3 half of the medium, was refreshed with Treg differentiation cocktail as above and compounds (10 and 50 μM). On day 5 cells were collected and the following staining were performed: live/dead (Invitrogen, L34963), and Foxp3/Transcription Factor Staining Buffer Set (EBioscience, 00-5523-00), mouse anti-human FoxP3 (BD, 560046) or mouse IgG1, κIsotype control (BD, 555749) and analyzed by FACS (BD LSR Fortessa, 853492).

For data set [3], the system named is primary fibroblasts (healthy controls and PA, MMA, BCKDK, PDH, VLCAD, LS, PC, GA, VLCFA, KSS, FXN, HD). Nature of the data set: Measurement of ROS (H2DCFDA) in primary fibroblasts. It is filed as cell-based, human. To be noted: Homo sapiens, Fibroblast, BCKD GM00649, procedure Example 812, Assay Condition C. The method in brief: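 Patient and healthy-control primary fibroblasts switched to supplemented DMEM 24 h before assay, then treated with compound (10 μM) plus H2DCFDA (22 μM) for 2 h (PA, MMA lines) or 24 h (other lines). Kinetic fluorescence at 492/527 nm over 60 min; only live cells analysed.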

For another data set, the system named is HepG2 cells. The data set is described as follows: MitoBiogenesis In-Cell ELISA (COX-I, SDH-A). It is filed as cell-based. As to conditions: Homo sapiens, 168 h, 10 uM, 7 days, read-out: % increase in Mitochondrial Biogenesis. The procedure, abridged: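 HepG2 cells were plated, adhered overnight at 37 °C/5% CO2, then exposed to test compounds (50–10 μM) in DMEM with 10% FBS for 7 days without media change; vehicle was 0.2% DMSO. COX-I and SDH-A were measured by in-cell ELISA and reported as signal relative to vehicle, n=2.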

Data set [4] can be described thus: Deuterated and endogenous Coenzyme A in tissues after single and multiple dosing to vitamin B5-deprived mice (LC-MS/MS). It is filed as in vivo, C57BL/6N mice. The method, then:
Example 22: Determining Deuterated and Endogenous Coenzyme A in Various Tissues after Single and Multiple Dosing of Compound 1216 to Vitamin B5-Deprived Male C57BL/6N Mice
C57BL6/J male mice were placed on a Vitamin B5 deprived diet for 2 weeks prior to the start of dosing with Compound 1216, single or multiple dosing with either IV or oral administration. […]
The test item and vehicle were administered to the appropriate animals via intravenous (slow bolus) injection to the tail vein (Groups 1-5). In Group 6 test item was administered via oral gavage. The dose volume for each animal was based on the most recent body weight measurement. The animals were temporarily restrained for dose administration and were not sedated. The dose was given using a disposable needle and syringe (intravenous administration) or a stainless steel tube (oral gavage). The dosing formulations were stirred continuously during dose administration, when possible.
Tissue samples were directly removed after sacrifice, together with plasma and CSF and immediately snap frozen in liquid nitrogen and stored at −80° C. […].
Ultrapure water (UPW) was added to the tissue in a 3:1 ratio (e.g. 1 gr tissue+3 ml UPR) and homogenized for 2 minutes at 30/s with 3 beads using a bead mill. Samples were placed on ice and 200 mg weighed in a 2 ml PP tube. 20 μL 50 mM TCEP was added to the sample and vortexed and placed on ice water for 30 minutes. Subsequently 100 μL Perchloric acid was added and the samples was again vortexed and centrifuged for 5 min at 13000 ref (4° C.). Then 225 μL of the supernatant was transferred to a 1.5 mL PP tube. Then 50 μL 3M KOH was added, vortexed and incubated for 2h on ice water. Then 50 μL 3M HCl was added and again vortexed and centrifuged for 5 min at 13000 rcf (4° C.). 100 μL of the supernatant was transferred to a 1.5 mL PP tube, 150 μL UPW was added, and the samples was again vortexed. Then 200 μL of the supernatant was transferred to a 96-wells plate and the samples were ready for measurement. […]

Where two headings read alike, the source gives them in different places. Bounds are passed on as bounds.

With `C/C=C/C(=O)SCCNC(=O)CCNC(=O)[C@H](O)C(C)(C)CO` [Compound 35, (R)—S-(2-(3-(2,4-dihydroxy-3,3-dimethylbutanamido)propanamido)ethyl) (E)-but-2-enethioate], the activation at 10 µM was at least 30% in data set [1] (read-out: % Increase in IL-10 Secretion) and over 5% with HepG2 cells. For the same compound, the inhibition at 10 µM is at least 30% in data set [1] (read-out: % decrease in Macrophage IL-6 Secretion), at least 30% in data set [1] (read-out: % decrease in Macrophage TNFα Secretion), at least 10% in data set [3] (read-out: Decreased ROS by at least 10%) and at least 30% in data set [3] (read-out: Decreased ROS by at least 30%). In data set [2], this compound returned a percent decrease in viable Treg cells at 5 days, 50 µM of at least 30%.

As to `[2H]C([2H])([2H])C(COP(=O)(O)O)(C(O)C(=O)NCCC(=O)NCCSC(C)=O)C([2H])([2H])[2H]` (stereo not shown) [Compound 1216, S-acetyl-4′-phosphopantetheine-D6], the “Levels of labeled CoA in liver and kidney” value in data set [4] (multiple IV doses) is given as “high levels of labeled CoA”. Also, the “Presence of deuterated (labelled) CoA in three brain regions and other organs over time” value in data set [4] (multiple IV doses, up to 24 hours after last dose) is “prolonged presence of deuterated (labelled) CoA”. Besides, in data set [4] (multiple doses (either 3 or 5, IV and oral) of 102.8 mg/kg every 12 hours, vitamin B5-deprived mice, 15 minutes after last dose), the “Deuterated (labelled) CoA in cerebellum, cerebrum, remainder of the brain, liver, heart and kidney” value is “results in deuterated (labelled) CoA”.
